Measurements from patent US20260206761A1, “HETEROARYL-TRIAZOLE COMPOUNDS AS PESTICIDES” (Bayer Aktiengesellschaft, priority 2019, published 2026).

How the values were obtained:
Format in all cases: in vivo
[1] = tested on: Rhipicephalus microplus larvae (strain Parkhurst, resistant against synthetic pyrethroids); assay: Rhipicephalus (Boophilus) microplus in-vitro contact test, larval cattle tick; conditions: after 48 hours, read-out: activity (efficacy: larvae dead or moribund); for pest or weed control at 100 g/ha: application rate 1 pg/cm^2 (=100 g/ha); for pest or weed control at 500 g/ha: application rate 5 pg/cm^2 (=500 g/ha)
Description: Rhipicephalus (Boophilus) microplus—In-Vitro Contact Tests Larval Cattle Tick (Strain Parkhurst. Resistant Against Synthetic Pyrethroids)
(§1) 9 mg compound is solved in 1 mL acetone and diluted with acetone to the desired concentration. 250 μL of the test solution is filled in 25 mL glass test tubes and homogeneously distributed on the inner walls by rotation and tilting on a shaking device (2 h at 30 rpm). With a compound concentration of 900 ppm, an inner surface of 44.7 cm^2 and a homogeneous distribution, a dose of 5 μg/cm^2 is achieved.
After the solvent has evaporated, each test tube is filled with 20-50 cattle tick larvae (Rhipicephalus microplus), closed with a perforated lid and incubated in a horizontal position at 85% relative humidity and 27° C. in an incubator. After 48 hours efficacy is determined. The larvae are patted on the ground of the tubes and negative geotactic behaviour is recorded.
An efficacy of 100% means all larvae are dead or moribund; 0% means no larvae are dead or moribund.

[2] = tested on: fall armyworm larvae (Spodoptera frugiperda); assay: Spodoptera frugiperda spray test; conditions: 168 h, read-out: activity (mortality)
Description: Spodoptera frugiperda—Spray Test
Solvent: 78.0 parts by weight acetone • 1.5 parts by weight dimethylformamide
(§2) Emulsifier: alkylarylpolyglycol ether
(§3) To produce a suitable preparation of active compound, 1 part by weight of active compound is mixed with the stated amount of solvents and is diluted with water, containing an emulsifier concentration of 1000 ppm, to the desired concentration. Further test concentrations are prepared by dilution with emulsifier containing water.
Maize (Zea mays) leaf sections are sprayed with a preparation of the active ingredient of the desired concentration. Once dry, the leaf sections are infested with fall armyworm larvae (Spodoptera frugiperda).
After 7 days mortality in % is determined. 100% means all caterpillars have been killed and 0% means none of the caterpillars have been killed.

[3] = tested on: adult brown dog ticks (Rhipicephalus sanguineus); assay: Rhipicephalus sanguineus in-vitro contact test, adult brown dog ticks; conditions: after 48 hours, read-out: activity (efficacy: ticks dead or moribund)
Description: Rhipicephalus sanguineus—In-Vitro Contact Tests with Adult Brown Dog Ticks
as §1
After the solvent has evaporated, each test tube is filled with 5-10 adult brown dog ticks (Rhipicephalus sanguineus), closed with a perforated lid and incubated in a lying position at room temperature and relative humidity. After 48 hours efficacy is determined. The ticks are patted on the ground of the tubes and are incubated on a heating plate at 45-50° C. for at most 5 minutes. Immotile or uncoordinated moving ticks, which are not able to escape the heat by climbing upwards, are marked as dead or moribund.
An efficacy of 100% means all ticks are dead or moribund; 0% means no ticks are dead or moribund.

[4] = tested on: larvae of the banded cucumber beetle (Diabrotica balteata); assay: Diabrotica balteata spray test; conditions: 168 h, after 7 days, read-out: activity (efficacy: seedlings grown); for pest or weed control at 100 g/ha: application rate 100 g/ha (=32 pg/well)
Description: Diabrotica balteata—spray test
(§4) Solvent: 78.0 parts by weight of acetone • • 1.5 parts by weight of dimethylformamide
as §2
as §3, with “solvent,” for “solvents”, “and the concentrate” for “and”
Soaked wheat seeds (Triticum aestivum) are placed in a multiple well plate filled with agar and some water and are incubated for 1 day to germinate (5 seeds per well). The germinated wheat seeds are sprayed with a test solution containing the desired concentration of the active ingredient. Afterwards each unit is infected with 10-20 larvae of the banded cucumber beetle (Diabrotica balteata).
After 7 days efficacy in % is determined. 100% means all the seedlings have grown up like in the untreated, uninfected control; 0% means none of the seedlings have grown.

[5] = tested on: larvae of the southern green stink bug (Nezara viridula); assay: Nezara viridula spray test; conditions: 96 h, after 4 days; for mortality at 500 g/ha: application rate 500 g/ha
Description: Nezara viridula—Spray Test
as §4, §2
as §3, with “solvent,” for “solvents”, “and the concentrate” for “and”
Barley plants (Hordeum vulgare) infested with larvae of the southern green stink bug (Nezara viridula) are sprayed with a test solution containing the desired concentration of the active ingredient.
After 4 days mortality in % is determined. 100% means all the stink bugs have been killed; 0% means none of the stink bugs have been killed.

[6] = tested on: green peach aphid (Myzus persicae); assay: Myzus persicae oral test; conditions: 120 h, application rate 4 ppm, after 5 days
Description: Solvent: 100 parts by weight acetone
To produce a suitable preparation of active compound, 1 part by weight of active compound is mixed with the stated amount of solvent, and the concentrate is diluted with water to the desired concentration.
50 μL compound solution is filled in microtiter plates and 150 μL IPL41 insect medium (33%+15% sugar) is added to obtain a total volume of 200 μL per well. Afterwards the plates are sealed with parafilm through which a mixed population of the green peach aphid (Myzus persicae) can suck on the compound preparation.
After 5 days mortality in % is determined. 100% means all aphids have been killed and 0% means none of the aphids have been killed.

[7] = tested on: adult engorged female ticks (Rhipicephalus microplus); assay: Rhipicephalus (Boophilus) microplus injection test; conditions: 168 h, egg deposition after 7 days, read-out: activity (efficacy: infertile eggs)
Description: Rhipicephalus (Boophilus) microplus—Injection Test
Solvent: dimethyl sulfoxide
To produce a suitable preparation of active compound, 10 mg of active compound are dissolved in 0.5 mL solvent, and the concentrate is diluted with solvent to the desired concentration.
Five adult engorged female ticks (Rhipicephalus microplus) are injected with 1 μL compound solution into the abdomen. The ticks are transferred into replica plates and incubated in a climate chamber.
After 7 days egg deposition of fertile eggs is monitored. Eggs where fertility is not visible are stored in a climate chamber till hatching after about 42 days. An efficacy of 100% means all eggs are infertile; 0% means all eggs are fertile.

| Structure (SMILES) | mortality at 100 g/ha [2] | pest or weed control at 100 g/ha [4] | mortality at 500 g/ha [5] | other results |
| --- | --- | --- | --- | --- |
| C[C@H](NC(=O)c1cc(C(F)F)cc(S(C)(=O)=O)c1)c1nc(C2CC2)nn1-c1ccc(Cl)cn1 [I-57] | 100% | 100% | 90% | pest or weed control at 100 g/ha [1]: 100%; pest or weed control at 500 g/ha [1]: 100%; pest or weed control at 100 g/ha ([3]; application rate 1 pg/cm^2 (=100 g/ha)): 100%; pest or weed control at 5 µg/cm2, 500 g/ha ([3]; application rate 5 μg/cm^2 (=500 g/ha)): 80%; mortality at 100 g/ha ([5]; application rate 100 g/ha): 100% |
| COc1nc([C@H](C)NC(=O)c2cc(Cl)cc(S(=O)(=O)C3CC3)c2)n(-c2ccc(Cl)cn2)n1 [I-62] | 100% | 100% |  | mortality at 4 ppm [6]: 100% |
| C[C@H](NC(=O)c1cc(C(F)(F)F)cc(S(C)(=O)=O)c1)c1nc(C2CC2)nn1-c1ccc(Cl)cn1 [I-68] | 100% | 100% |  | mortality at 4 ppm [6]: 100% |
| COc1nc([C@H](C)NC(=O)c2cc(Br)cc(C3CC3(F)F)c2)n(-c2ccc(C#N)cn2)n1 (stereo partly drawn) [I-72] | 100% |  | 90% | pest or weed control at 100 g/ha [1]: 100%; pest or weed control at 500 g/ha [1]: 90% |
| COc1nc([C@H](C)NC(=O)c2cc(F)cc(S(C)(=O)=O)c2)n(-c2ccc(C#N)cn2)n1 [I-73] | 100% | 100% |  |  |
| COc1nc([C@H](C)NC(=O)c2cc(Cl)cc(S(C)(=O)=O)c2)n(-c2ncc(Cl)cn2)n1 [I-78] | 100% | 100% |  |  |
| CC(NC(=O)c1cc(OC(F)(F)F)cc(C2CC2)c1)c1nc(Cl)nn1-c1ccc(C#N)cn1 (stereo not drawn) [I-85] |  | 100% |  | pest or weed control at 100 g/ha [1]: 90%; pest or weed control at 500 g/ha [1]: 90% |
| C[C@H](NC(=O)c1cc(OC(F)F)cc(S(=O)(=O)C2CC2)c1)c1nc(C2CC2)nn1-c1ccc(C#N)cn1 [I-86] | 100% | 100% | 100% |  |
| COc1nc([C@H](C)NC(=O)c2cc(Cl)cc(S(=O)(=O)C3CC3)c2)n(-c2ccc(C#N)cn2)n1 [I-87] | 100% |  | 100% |  |
| COc1nc([C@H](C)NC(=O)c2cc(C(F)F)cc(S(C)(=O)=O)c2)n(-c2ccc(C#N)cn2)n1 [I-89] | 100% |  | 100% |  |
| C[C@H](NC(=O)c1cc(OC(F)(F)F)cc(S(=O)(=O)C2CC2)c1)c1nc(C2CC2)nn1-c1ccc(C#N)cn1 [I-90] | 100% | 100% | 100% |  |
| COc1nc([C@H](C)NC(=O)c2cc(OC(F)(F)F)cc(S(=O)(=O)C3CC3)c2)n(-c2ccc(C#N)cn2)n1 [I-92] | 100% |  | 90% |  |
| C[C@H](NC(=O)c1cc(Br)cc(C(C)(C)C)c1)c1nncn1-c1ccc(C#N)cn1 [II-2] |  |  |  | mortality at 500 g/ha [2]: 100%; pest or weed control at 4 pg ([7]; application rate 4 pg/animal): 100%; pest or weed control at 0.02 mg ([7]; application rate 20 μg/animal): 100%; pest or weed control at 500 g/ha ([4]; application rate 500 g/ha (=160 pg/well)): 100% |
| Cc1nc([C@H](C)NC(=O)c2sccc2C(F)(F)F)n(-c2ccc(C#N)cn2)n1 [II-10] |  |  |  | pest or weed control at 500 g/ha [1]: 90% |
